Measured values reported in US12655139B2, “Isoxazolidines as RIPK1 inhibitors and use thereof” (SANOFI, priority 2020, dated 2026).
Like-named read-outs stand apart in the source and are kept apart here.

Columns and labels:
[1] = molecular target: T1, hRIPK1 (aa 1-375) fusion protein (Homo sapiens, UniProt Q13546); assay: ADP-Glo kinase assay, RIPK1 autophosphorylation; type: biochemical; conditions: Table 1
T1 construct: hRIPK1 (aa 1-375) fusion protein
T1 sequence (Q13546 1-375): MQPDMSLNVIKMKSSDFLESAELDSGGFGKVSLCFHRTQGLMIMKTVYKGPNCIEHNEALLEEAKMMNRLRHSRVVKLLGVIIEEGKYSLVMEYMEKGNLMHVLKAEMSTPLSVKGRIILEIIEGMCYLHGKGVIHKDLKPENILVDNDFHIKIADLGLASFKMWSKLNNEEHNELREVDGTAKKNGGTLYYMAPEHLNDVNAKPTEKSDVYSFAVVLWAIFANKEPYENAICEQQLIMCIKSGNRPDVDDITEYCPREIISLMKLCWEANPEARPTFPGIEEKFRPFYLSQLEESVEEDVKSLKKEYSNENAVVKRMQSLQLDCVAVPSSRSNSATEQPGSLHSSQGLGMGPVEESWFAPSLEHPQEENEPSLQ
Procedure: Evaluation of Receptor-Interacting Protein Kinase 1 Inhibition.
The catalytic activity of RIPK1 was measured by monitoring the conversion of Adenosine triphosphate (ATP) to Adenosine diphosphate (ADP) due to autophosphorylation using an ADP-Glo kinase kit (Promega, catalog no. V9104).
After another 240 minutes incubation at room temperature, 5 μl Promega ADP-Glo reagent I were added to quench the reaction and deplete unconsumed ATP. After an incubation period of 30 minutes, 10 μl Promega ADP-Glo detection reagent II were added resulting in conversion of ADP to ATP, which generates a light-reaction between luciferase and luciferin. Luminescence was quantified after 30 minutes with a Pherastar FS (BMG LABTECH, Ortenberg).
The adjustment was obtained by nonlinear regression using the Levenberg Marquardt algorithm.

U937 cells = assay: Cellular assay in U937 cells on cell death (necroptosis), TNFα/zVAD.fmk; type: cell-based; conditions: read-out: U937 IC50
Procedure, shortened: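 U937 cells with 100 ng/ml TNFα plus 50 μM zVAD.fmk (pre-addition suspension levels) received 10 compound concentrations (10 μM–0.26 nM or 1 μM–0.07 nM) for 18–24 h at 37 °C. Live cells were read by MTS formazan absorbance at 490 nm after 4 h. % inhibition is relative to the maximal value without TNFα/zVAD.fmk.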

SMILES	IC50 [1] [nM]	IC50 (U937 cells; Homo sapiens, U-937, Table 2) [nM]	IC50 (U937 cells; Table 2) [nM]
N#Cc1ccc([C@@H]2CCON2C(=O)C2CCN(c3nccc(C(N)=O)n3)CC2)nc1 [Ex. 108]	81.6	1010	–
N#Cc1cncc([C@@H]2CCON2C(=O)C2CCN(c3ncc(F)c(C#N)n3)CC2)c1 [Ex. 111]	28.2	11.6	–
Cc1nsc(N2CCC(C(=O)N3OCC[C@H]3c3cncc(C#N)c3)CC2)n1 [Ex. 113]	122	773	–
N#Cc1cncc([C@@H]2CCON2C(=O)C2(F)CCN(c3nccc(C(N)=O)n3)CC2(F)F)c1 (stereo partly drawn) [Ex. 115]	24.7	62.7	–
N#Cc1cncc([C@@H]2CCON2C(=O)C2CCN(c3cnc(Cl)nc3C(=O)O)CC2)c1 [Ex. 121]	> 33000	4440	–
N#Cc1cncc([C@@H]2CCON2C(=O)C2CCN(c3ccnc(C(N)=O)n3)CC2)c1 [Ex. 156]	297	927	–
N#Cc1cncc([C@@H]2CCON2C(=O)C2CCN(c3ccnc(Br)n3)CC2)c1 [Ex. 157]	43.9	114	–
N#Cc1cncc([C@@H]2CCON2C(=O)C2CCN(c3cc(Cl)ncn3)CC2)c1 [Ex. 159]	31.8	77.1	–
O=C(O)c1nc(Cl)ncc1N1CCC(C(=O)N2OCC[C@H]2c2cnccn2)CC1 [Ex. 164]	17500	1970	–
N#Cc1cncc([C@@H]2CCON2C(=O)C2CCN(c3cc(Br)ncn3)CC2)c1 [Ex. 165]	25	52.7	–
N#Cc1cc([C@@H]2CCON2C(=O)C2CCN(c3ncc(F)c(C(N)=O)n3)CC2)cs1 [Ex. 166]	37.2	59.7	–
N#Cc1cc([C@@H]2CCON2C(=O)C2CCN(c3ncc(F)c(C(N)=O)n3)CC2)co1 [Ex. 167]	31.1	48	–
N#Cc1cc([C@@H]2CCON2C(=O)C2CCN(c3nccc(C(N)=O)n3)CC2)cs1 [Ex. 168]	45.4	79.2	–
N#Cc1cc([C@@H]2CCON2C(=O)C2CCN(c3nccc(C(N)=O)n3)CC2)co1 [Ex. 171]	51.9	85.8	–
NC(=O)c1nc(N2CCC(C(=O)N3OCC[C@H]3c3ccccn3)CC2)ncc1F [Ex. 175]	22.3	44.6	–
N#Cc1cc([C@@H]2CCON2C(=O)C2CCN(c3ncc(F)c(C(N)=O)n3)CC2)cnn1 [Ex. 178]	112	1300	–
Cc1nc(Cl)nc(N2CCC(C(=O)N3OCC[C@H]3c3cnccn3)CC2)n1 [Ex. 180]	32	1050	–
N#Cc1nc([C@@H]2CCON2C(=O)C2CCN(c3ncc(F)c(C(N)=O)n3)CC2)cs1 [Ex. 189]	30.3	102	–
N#Cc1cncc([C@@H]2CCON2C(=O)C2CCN(c3nccc(C(N)=O)n3)CC2)c1 [compound 4]	23.8	22.1	–

More lines, main results first:

IC50 [1] [nM]	SMILES	IC50 (U937 cells; Homo sapiens, U-937, Table 2) [nM]	IC50 (U937 cells; Table 2) [nM]
19.3	Cc1cc([C@@H]2CCON2C(=O)C2CCN(c3cc(C(N)=O)ncn3)CC2)co1 [Ex. 109]	5.31	–
14	COc1nc(N2CCC(C(=O)N3OCC[C@H]3c3cncc(C#N)c3)CC2)ncc1F [Ex. 114]	7.85	–
21.4	COc1nc(N2CCC(C(=O)N3OCC[C@H]3c3cncc(C)n3)CC2)ncc1F [Ex. 116]	4.5	–
21.9	N#Cc1cncc([C@@H]2CCON2C(=O)C2CCN(c3ncc(F)c(C(N)=O)n3)CC2F)c1 (stereo partly drawn) [Ex. 154]	–	38.8
16.5	N#Cc1cncc([C@@H]2CCON2C(=O)C2CCN(c3ncc(F)c(C(N)=O)n3)CC2F)c1 (stereo partly drawn) [Ex. 155]	–	4.06
21.7	Cc1nc([C@@H]2CCON2C(=O)C2CCN(c3ncc(F)c(C(N)=O)n3)CC2)cs1 [Ex. 170]	16.5	–
3.26	Nc1nc(Cl)nc(N2CCC(C(=O)N3OCC[C@H]3c3cnccn3)CC2)n1 [Ex. 184]	1.79	–
9.31	Cc1cncc([C@@H]2CCON2C(=O)C2CCN(c3nccc(C(N)=O)n3)CC2)n1 [compound 44]	8.47	–
